From US8642074B2, “Thermosensitive liposomes containing therapeutic agents” (Celsion Corporation, priority 2007, dated 2014) come the findings set out here.

Values joined by “and” are separate entries in the source; they are usually repeats but may differ in a detail not shown here. Equal values may be shown once.

For series [1], the system named is Lewis lung carcinoma cells. Kind of series: In vivo efficacy in mice bearing Lewis lung tumors with local heating. Details: species or system Kunming mice. Conditions: day 18, 75 mg/m^2 on days 8, 12, 16. As to the method:
Twelve female Kunming mice, between 7-9 weeks old and weighing 20±2 g were used. Lewis lung carcinoma cells (3×10^6 cells in 0.1 ml of PBS.) were implanted subcutaneously into the right lower leg of each mouse. Tumors were allowed to grow to 4-6 mm in diameter before starting treatment.
The 12 mice were stratified by tumor volume and randomized to 3 treatment groups: saline, free docetaxel and the thermosensitive liposomes of the invention.
Docetaxel-containing thermosensitive liposomes of the invention were prepared as described above and stored at 2-8° C. until use. Treated animals were injected with 75 mg/m^2 docetaxel either in a thermosensitive liposome of the invention or as non-liposomal Taxotere prepared according to the manufacturer's specifications.
The treatment was started on day 8 after the tumor implantation and was repeated on day 12 and day 16. Mice in all treatment groups were anesthetized with an IP injection of pentobarbital (80 mg/kg); treatment was administered in a volume of 0.2 ml via tail vein injection. This dose of anesthesia provided adequate immobilization for the 1-h treatment period.
Except for the saline group, all treatment groups were given an equivalent dose of 75 mg/m^2 of docetaxel. Immediately after injection, the mice were positioned in specially designed holders that allowed the isolated leg tumor to be placed in a water bath for 30 minutes. The water bath temperature was set at 43° C. This water bath temperature has been calibrated previously to give tumor temperatures of 42° C. All the mice were sacrificed at day 18. The tumors were surgically excised and the tumor weights were recorded. The tumor growth inhibition was calculated as follows: Tumor Inhibition Ratio=(Vs−Vx)/Vs
Where: Vs is tumor volume of saline group, Vx is the tumor volume of treatment group.

The nature of series [2]: In vivo drug distribution in heated and non-heated leg muscle, liposome vs free docetaxel (Example 2). On the set-up: species or system BALB/c mice. The method, then: Six female BALB/c mice (20±2 g) were randomly separated into 3 groups. The mice were anesthetized and put on a Styrofoam board with a hole in it. One leg of the mouse was pulled through the hole to other side of the board. The board was floated in a water bath to heat the leg at 43.5±0.5° C. for 15 min. The mice then received a tail vein injection of either liposomes at a dose of 10 mg/kg or the same dose of Taxotere (control: prepared according to the manufacturers specifications) The one leg from each mouse was then heated for 30 min. after injection and then sacrificed. Muscles from the heated and non-heated legs were excised. Drug was extracted from a fixed weight of muscle tissue using the extraction method described above. The extracted drug was analyzed by HPLC.

For `CC(=O)O[C@@]12CO[C@@H]1C[C@H](O)[C@@]1(C)C(=O)[C@H](O)C3=C(C)[C@@H](OC(=O)[C@H](O)[C@@H](NC(=O)OC(C)(C)C)c4ccccc4)C[C@@](O)([C@@H](OC(=O)c4ccccc4)[C@H]21)C3(C)C` [Docetaxel, docetaxel], the “Tumor Weight Average” value in series [1] (group average, tumor heated 30 min, in g (unit assumed)) is recorded as 1.002. Moreover, in series [1] (individual mice, tumor heated 30 min at 42° C., listed as Docetaxel Injection, in g (unit assumed)), the “Tumor Weight” value was 0.500 and 0.118 and 1.380 and 2.010. In series [1] (vs saline group, tumor heated 30 min), this compound showed an Inhibition % of 77.91%. In series [2] (Example 2, 10 mg/kg tail vein), the “drug concentration in heated compared with non heated tissue” value is on record as “the same”. The “Adrug/Aref % (heated leg)” value in series [2] (muscle, leg heated at 43.5±0.5° C., 10 mg/kg tail vein, HPLC, Groups 1-3, 10 mg/kg) was 5.46% and 6.53% and 5.48%. In series [2] (muscle, non-heated leg, 10 mg/kg tail vein, HPLC, Groups 1-3, 10 mg/kg), the “Adrug/Aref % (non-heated leg)” value was 5.48% and 6.29% and 5.32%.
